Test results as given in US7612064B2, “Sulfopyrroles” (Takeda Pharmaceutical Company Limited, priority 2003, dated 2009).

Legend:
[1] = test system: HeLa; assay: MTS proliferation assay; assay type: cell-based, human; conditions: 72 h
Method in brief: (§1)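 Cells were exposed for 72 h under culture conditions to test compounds at final concentrations of 10, 3, 1 and 0.3 μM, added in complete medium with at most 5% DMSO. MTS reagent was then added for a further 3 h, and absorbance was read at 492 nm.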

[2] = test system: Jurkat; assay: MTS proliferation assay; assay type: cell-based, human; conditions: 72 h
Method in brief: as §1

[3] = test system: MRC5; assay: MTS proliferation assay; assay type: cell-based; conditions: MRC5, 72 h
Method in brief: as §1

[4] = test system: Jily; assay: MTS proliferation assay; assay type: cell-based; conditions: 72 h
Method in brief: as §1

[5] = Hoechst 33342 nuclear staining; assay type: cell-based; conditions: for Hoechst 33342 nuclear staining score, H460: H460 cells; for Hoechst 33342 nuclear staining score, HeLa: HeLa cells; for Hoechst 33342 nuclear staining score, Jily: Jily cells; for Hoechst 33342 nuclear staining score, Jurkat: Jurkat cells; for Hoechst 33342 nuclear staining score, MRC5: MRC5 cells; as to Hoechst 33342 nuclear staining score, PBLs: key: 0: no activity; 1: weak activity comprising less than 50% of the cells; 2: strong activity comprising more than 50% of the cells;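 as to all read-outs here: apoptotic nuclei scored 0 none 1 weak under 50% of cells 2 strong over 50% of cells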
Method in brief: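 Cells were plated in 96 well tissue culture plates in 80 μl complete medium, with 3-5*10^3 cells per well for adherent lines and 8-10*10^3 for suspension lines. Adherent cells spread for 24 h before treatment, while suspension cells were treated right after seeding. Compounds were added in 20 μl complete medium containing max 5% DMSO.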

SMILES	IC50 [1]	IC50 [2]	IC50 [3]	IC50 [4]	Hoechst 33342 nuclear staining score, H460 ([5]; conc 0.1)	Hoechst 33342 nuclear staining score, H460 ([5]; conc 0.3)	Hoechst 33342 nuclear staining score, H460 ([5]; conc 1)	Hoechst 33342 nuclear staining score, H460 ([5]; conc 3)	Hoechst 33342 nuclear staining score, HeLa ([5]; conc 0.1)	Hoechst 33342 nuclear staining score, HeLa ([5]; conc 0.3)	Hoechst 33342 nuclear staining score, HeLa ([5]; conc 1)	Hoechst 33342 nuclear staining score, HeLa ([5]; conc 3)	Hoechst 33342 nuclear staining score, Jily ([5]; conc 0.1)	Hoechst 33342 nuclear staining score, Jily ([5]; conc 0.3)	Hoechst 33342 nuclear staining score, Jily ([5]; conc 1)	Hoechst 33342 nuclear staining score, Jily ([5]; conc 3)	Hoechst 33342 nuclear staining score, Jurkat ([5]; conc 0.1)	Hoechst 33342 nuclear staining score, Jurkat ([5]; conc 0.3)	Hoechst 33342 nuclear staining score, Jurkat ([5]; conc 1)	Hoechst 33342 nuclear staining score, Jurkat ([5]; conc 3)	also measured
COc1ccc(S(=O)(=O)n2cc(CNc3ccc(N4CCOCC4)cc3)cc2-c2cccc(OC)c2)cc1 [Example 98]	> 1000 nM	> 1000 nM	> 1000 nM	> 1000 nM	0	0	0	0	0	0	0	0	0	0	0	0	0	0	0	1 (weak activity comprising less than 50% of the cells)	Hoechst 33342 nuclear staining score, MRC5 ([5]; conc 0.1): 0; Hoechst 33342 nuclear staining score, MRC5 ([5]; conc 0.3): 0; Hoechst 33342 nuclear staining score, MRC5 ([5]; conc 1): 0; Hoechst 33342 nuclear staining score, MRC5 ([5]; conc 3): 0; Hoechst 33342 nuclear staining score, PBLs ([5]; conc 0.1): 0; Hoechst 33342 nuclear staining score, PBLs ([5]; conc 0.3): 0; Hoechst 33342 nuclear staining score, PBLs ([5]; conc 1): 0; Hoechst 33342 nuclear staining score, PBLs ([5]; conc 3): 0
COc1ccc(S(=O)(=O)n2cc(CNc3ccc(N4CCOCC4)cc3)cc2-c2ccccc2OC)cc1 [Example 97]	> 1000 nM	> 1000 nM	> 1000 nM	> 1000 nM	0	0	0	0	0	0	0	0	0	0	0	0	0	0	0	0	Hoechst 33342 nuclear staining score, MRC5 ([5]; conc 0.1): 0; Hoechst 33342 nuclear staining score, MRC5 ([5]; conc 0.3): 0; Hoechst 33342 nuclear staining score, MRC5 ([5]; conc 1): 0; Hoechst 33342 nuclear staining score, MRC5 ([5]; conc 3): 0; Hoechst 33342 nuclear staining score, PBLs ([5]; conc 0.1): 0; Hoechst 33342 nuclear staining score, PBLs ([5]; conc 0.3): 0; Hoechst 33342 nuclear staining score, PBLs ([5]; conc 1): 0; Hoechst 33342 nuclear staining score, PBLs ([5]; conc 3): 0
COc1ccc(S(=O)(=O)n2cc(-c3cncc(C(N)=O)c3)cc2-c2ccc(OC)cc2OC)cc1 [Example 106]	> 1000 nM	> 1000 nM	> 1000 nM	> 1000 nM	0	0	1 (weak activity comprising less than 50% of the cells)	2 (strong activity comprising more than 50% of the cells)	0	0	1 (weak activity comprising less than 50% of the cells)	2 (strong activity comprising more than 50% of the cells)	0	0	1 (weak activity comprising less than 50% of the cells)	2 (strong activity comprising more than 50% of the cells)	0	0	2 (strong activity comprising more than 50% of the cells)	2 (strong activity comprising more than 50% of the cells)	Hoechst 33342 nuclear staining score, MRC5 ([5]; conc 0.1): 0; Hoechst 33342 nuclear staining score, MRC5 ([5]; conc 0.3): 0; Hoechst 33342 nuclear staining score, MRC5 ([5]; conc 1): 0; Hoechst 33342 nuclear staining score, MRC5 ([5]; conc 3): 1 (weak activity comprising less than 50% of the cells); Hoechst 33342 nuclear staining score, PBLs ([5]; conc 0.1): 0; Hoechst 33342 nuclear staining score, PBLs ([5]; conc 0.3): 0; Hoechst 33342 nuclear staining score, PBLs ([5]; conc 1): 0; Hoechst 33342 nuclear staining score, PBLs ([5]; conc 3): 0
COc1cc(-c2cc(-c3cccnc3)cn2S(=O)(=O)c2cccs2)cc(OC)c1OC [Example 90]	> 1000 nM	< 1000 nM	> 1000 nM	< 1000 nM	0	0	0	2 (strong activity comprising more than 50% of the cells)	0	0	0	2 (strong activity comprising more than 50% of the cells)	0	0	1 (weak activity comprising less than 50% of the cells)	1 (weak activity comprising less than 50% of the cells)	0	0	2 (strong activity comprising more than 50% of the cells)	2 (strong activity comprising more than 50% of the cells)	Hoechst 33342 nuclear staining score, MRC5 ([5]; conc 0.1): 0; Hoechst 33342 nuclear staining score, MRC5 ([5]; conc 0.3): 0; Hoechst 33342 nuclear staining score, MRC5 ([5]; conc 1): 0; Hoechst 33342 nuclear staining score, MRC5 ([5]; conc 3): 0; Hoechst 33342 nuclear staining score, PBLs ([5]; conc 0.1): 0; Hoechst 33342 nuclear staining score, PBLs ([5]; conc 0.3): 0; Hoechst 33342 nuclear staining score, PBLs ([5]; conc 1): 0; Hoechst 33342 nuclear staining score, PBLs ([5]; conc 3): 0
